Source: patent US20100239556A1, “PROMOTING ECM PRODUCTION BY FIBROBLAST CELLS AND/OR PROMOTING MIGRATION OF FIBROBLAST CELLS IN A BIOLOGICAL SYSTEM” (TGR BioScience Pty Ltd., priority 2006, published 2010)

Assays:
dermis = test: Cellular integration and ECM production of dermal filler substances implanted intradermally; assay type: in vivo, Sprague-Dawley rats; details: one month after implantation; for cellular integration and ECM production within Hylaform: LP 1 mg/ml or HRP 500 μg/ml added to Hylaform, or Hylaform alone; for cellular integration and ECM production within Restylane: LP 1 mg/ml or HRP 500 μg/ml added to Restylane, or Restylane alone
Protocol: The ability of agents with peroxidase activity to stimulate the production of endogenous ECM within, or about, a substrate when implanted in vivo was assessed. Substrates used for these experiments were two hyaluronic acid based dermal filler substances; Hylaform® Plus containing 5.5 mg/ml hylan B gel and Restylane® containing 20 mg/ml stabilised hyaluronic acid, and Sculptra® containing poly-L-lactic acid. The two pre-prepared “ready to use” hyaluronic acid filler substances were diluted 1:2 with 1 mg/ml HRP to give a final concentration of 500 μg/ml HRP whilst Sculptra powder was dissolved in a lmg/ml LP solution to final concentrations of 25 and 50 mg/ml poly-L-lactic acid. As described in example 8, female Sprague-Dawley rats were lightly anaesthetized and a volume of approximately 50 μl of the filler substance+protein with peroxidase activity or filler substance alone were injected intradermally into different sites on their dorsum. The rats were returned to their cage and left alone for 7 days or 1 month after which they were killed by CO2 asphyxiation and the skin at the injection sites collected for histological assessment as described in example 8, or immunohistochemical staining for collagen I using the method outlined previously for the SMA immunohistochemistry (in Example 3) with the variation that 5 μg/ml rabbit anti Collagen-I (Rocklands Immunochemicals) was used as the primary antibody.

HFF cells [1] = test: Collagen I production stimulated by SBP eluted from INTEGRA (ELISA); assay type: cell-based, human; details: versus control INTEGRA pieces
Protocol: (§1) These experiments were performed by pre-incubating 1 cm×1 cm pieces of INTEGRA® with SBP (25 μg/ml) as described in Example 3 for either 30 minutes or 16 hours, control pieces were pre-incubated in DMEM only. After this time, the pieces of INTEGRA® were washed in fresh media to remove excess SBP solution, and placed into the wells of a 12-well culture plate pre-seeded with HFF cells (2×10^5cells/well) that were grown to confluency over three days. The media from these wells was collected after 24 and 48 hours with peroxidase activity measured (to determine the rate of elution of the proteins with peroxidase activity from the Integra) and the collagen content measured by ELISA (to ensure the eluted proteins with peroxidase activity retained the capacity to stimulate collagen production by the HFF cells). The peroxidase activity was assessed using the Sigmafast™ O-phenylenediamine dihydrochloride (OPD) detection method as per the manufacturers instructions. Briefly, 5 μl of sample was combined with 100 μl of reagent and relative peroxidase activity determined after 5-10 minutes incubation by measuring absorbance at 450 nm using a Wallac Victor Multilabel HTS counter.

[2] = Elution of peroxidase activity from INTEGRA (Sigmafast OPD detection)
Protocol: as §1

[3] = system: primary-adult fibroblast cells; test: Fibroblast infiltration into INTEGRA scaffold (SMA immunohistochemistry); assay type: cell-based, human
Source text: INTEGRA® was cut into lcm x lcm pieces using a sterile scalpel, the pieces transferred to a petri dish using sterile forceps and washed four times each with PBS followed by serum-free DMEM, to remove the alcohol storage medium and to equilibrate the porous scaffold for exposure to cells. After the last wash, the INTEGRA® pieces were transferred to the wells of a 12 well tissue culture plate (collagen layer facing up) immersed in media containing proteins having peroxidase activity. This “pre-treatment” of the INTEGRA® with proteins having peroxidase activity was performed for up to 16 hours at 37° C. in a CO2 incubator. After the “pre-incubation” period, the media was replaced with fresh DMEM supplemented with 10% FBS (ie normal growth media as the control) containing 5×10^5 human fibroblast cells plus or minus proteins having peroxidase activity. After allowing 24 hours for the fibroblast cells to attach to the collagen matrix of the INTEGRA® scaffold, the INTEGRA® pieces were transferred to fresh 12 well plates to ensure any cells not attached to the matrix surface were removed. Fresh media containing proteins with peroxidase activity were added to the wells and the INTEGRA® pieces incubated for up to 14 days (“post-treatment” period) with the media changed every 7 days as necessary. […]

HFF cells [4] = test: as above; assay type: cell-based, human; details: 6 days
Source text: INTEGRA® was cut into lcm x lcm pieces using a sterile scalpel, the pieces transferred to a petri dish using sterile forceps and washed four times each with PBS followed by serum-free DMEM, to remove the alcohol storage medium and to equilibrate the porous scaffold for exposure to cells. After the last wash, the INTEGRA® pieces were transferred to the wells of a 12 well tissue culture plate (collagen layer facing up) immersed in media containing proteins having peroxidase activity. This “pre-treatment” of the INTEGRA® with proteins having peroxidase activity was performed for up to 16 hours at 37° C. in a CO2 incubator. […]
Additional experiments were performed as described above using HFF cells and varying the period of application of the proteins having peroxidase activity to include a “pre-treatment” application only (ie INTEGRA® incubated with SBP 25 μg/ml for up to 16 hours prior to the addition of cells), a “pre-treatment” and “post-treatment” application (ie INTEGRA® pre-treated with SBP and SBP added to the culture media once the INTEGRA had been seeded with cells) and a “post-treatment” application only (ie SBP added to the culture media once the INTEGRA® had been seeded with cells). The INTEGRA® was harvested after 6 days in culture and the number of SMA-positive fibroblast cells counted in five representative fields of view of sections from each condition.

adult fibroblast cells = test: ECM production within INTEGRA scaffold (collagen I immunohistochemistry); assay type: cell-based, human
Source text: (§2) INTEGRA® was cut into lcm x lcm pieces using a sterile scalpel, the pieces transferred to a petri dish using sterile forceps and washed four times each with PBS followed by serum-free DMEM, to remove the alcohol storage medium and to equilibrate the porous scaffold for exposure to cells. After the last wash, the INTEGRA® pieces were transferred to the wells of a 12 well tissue culture plate (collagen layer facing up) immersed in media containing proteins having peroxidase activity. This “pre-treatment” of the INTEGRA® with proteins having peroxidase activity was performed for up to 16 hours at 37° C. in a CO2 incubator. After the “pre-incubation” period, the media was replaced with fresh DMEM supplemented with 10% FBS (ie normal growth media as the control) containing 5×10^5 human fibroblast cells plus or minus proteins having peroxidase activity. After allowing 24 hours for the fibroblast cells to attach to the collagen matrix of the INTEGRA® scaffold, the INTEGRA® pieces were transferred to fresh 12 well plates to ensure any cells not attached to the matrix surface were removed. Fresh media containing proteins with peroxidase activity were added to the wells and the INTEGRA® pieces incubated for up to 14 days (“post-treatment” period) with the media changed every 7 days as necessary. At the end of the experiment the INTEGRA® pieces were harvested and fixed in 10% buffered formaldehyde before they were processed, embedded in paraffin wax, cut in cross-section and placed onto microscope slides for histological and immunohistochemical analysis.
(§3) To confirm proteins having peroxidase activity promote the generation of a three-dimensional human tissue by stimulating the production of collagen and other ECM components to fill the interstices of a three-dimensional framework or scaffold, INTEGRA® pieces collected from the experiments described in Example 3 were analysed for the production of Collagen I (as a representative ECM protein) using immunohistochemistry. […]

HFF cells [5] = test: as above; assay type: cell-based, human; details: SBP 25 μg/ml pre-, pre+post- or post-treatment
Source text: as §2, §3

[6] = 25 μg/ml before and after addition of cells, 7 days, versus 7 and 14 day controls

| Molecule | cellular integration and ECM production within Hylaform (dermis) | cellular integration and ECM production within Restylane (dermis) | ECM production (collagen I ELISA) by HFF cells exposed to eluted protein (HFF cells [1]) | peroxidase activity eluted, pre-incubated 16 hours compared to 30 minutes [2] | peroxidase activity in the medium collected after 24 and 48 hours ([2]; 24 versus 48 hours elution) | cells within the interstices of the INTEGRA scaffold [3, 6] | number of fibroblast cells infiltrating and populating the INTEGRA (HFF cells [4]; SBP 25 μg/ml pre-, pre+post- or post-treatment, versus 10% FBS control) | penetration of HFF cells into the scaffold (HFF cells [4]; SBP 25 μg/ml, controls limited to about the top third) | cell-associated ECM within the interstices of the scaffold (adult fibroblast cells; [6]) | production and deposition of cell-associated ECM in the scaffold (HFF cells [5]) | cells within the INTEGRA scaffold ([3]; 25 μg/ml, 14 days of treatment) | ECM production and integration (adult fibroblast cells; 25 μg/ml, 14 days, versus 14 days standard conditions) |
| --- | --- | --- | --- | --- | --- | --- | --- | --- | --- | --- | --- | --- |
| lactoperoxidase [LP] | surprising increase in cellular infiltration and integration and cell-associated ECM production | surprising increase in cellular infiltration and integration and cell-associated ECM production |  |  |  |  |  |  |  |  |  |  |
| soy bean peroxidase [SBP] |  |  | able to stimulate ECM production | approximately one third more | identical | many more cells were evident within the interstices of the scaffold | major influence on the number of fibroblast cells infiltrating and populating | penetrated the full thickness of the scaffold | much more cell-associated ECM was evident | as effective at promoting the production and depositon of cell-associated ECM throughout the full thickness of the scaffold |  |  |
| horse radish peroxidase (protein, UniProt P00433 31-338, looked up) Peroxidase C1A: QLTPTFYDNSCPNVSNIVRDTIVNELRSDPRIAASILRLHFHDCFVNGCDASILLDNTTSFRTEKDAFGNANSARGFPVIDRMKAAVESACPRTVSCADLLTIAAQQSVTLAGGPSWRVPLGRRDSLQAFLDLANANLPAPFFTLPQLKDSFRNVGLNRSSDLVALSGGHTFGKNQCRFIMDRLYNFSNTGLPDPTLNTTYLQTLRGLCPLNGNLSALVDFDLRTPTIFDNKYYVNLEEQKGLIQSDQELFSSPNATDTIPLVRSFANSTQTFFNAFVEAMDRMGNITPLTGTQGQIRLNCRVVNSNS | Increased cellular integration and ECM production | Increased cellular integration and ECM production |  |  |  |  |  |  |  |  | even greater number of cells evident within the scaffold | much greater ECM production and integration |
